In ChEMBL document CHEMBL1201862, “PubChem BioAssay data set” (2004):
One block for each molecule: values may come before it. The source made the active and inactive calls.

Experiments:
[1] = target: NAD-dependent protein deacylase sirtuin-5, mitochondrial (Homo sapiens, UniProt Q9NXA8); assay: sirtuin-5 deacylation blockers, concentration series – biochemical, fluorescence imaging, cherry-pick, set 5, dose response (AID 720591);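 note: desuccinylation of succinyl peptide AMC substrate read as fluorescence after trypsin release; potency of inhibitors that lower fluorescence and may act on trypsin instead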
Sequence of NAD-dependent protein deacylase sirtuin-5, mitochondrial (Q9NXA8 whole entry): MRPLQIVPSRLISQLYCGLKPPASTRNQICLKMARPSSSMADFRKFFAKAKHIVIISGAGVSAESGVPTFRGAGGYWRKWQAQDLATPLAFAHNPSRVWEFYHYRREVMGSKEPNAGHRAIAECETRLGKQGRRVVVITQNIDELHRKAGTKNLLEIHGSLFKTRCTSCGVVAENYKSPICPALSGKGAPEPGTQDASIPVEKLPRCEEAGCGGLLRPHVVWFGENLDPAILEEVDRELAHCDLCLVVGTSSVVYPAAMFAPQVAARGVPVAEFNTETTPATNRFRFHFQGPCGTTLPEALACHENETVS

[2] = target: Kallikrein-7 (Homo sapiens, UniProt P49862); assay: Fluorescence Intensity-based biochemical primary high throughput dose response assay to identify activators of kallikrein-7 (K7) zymogen.
Sequence of Kallikrein-7 (P49862 whole entry): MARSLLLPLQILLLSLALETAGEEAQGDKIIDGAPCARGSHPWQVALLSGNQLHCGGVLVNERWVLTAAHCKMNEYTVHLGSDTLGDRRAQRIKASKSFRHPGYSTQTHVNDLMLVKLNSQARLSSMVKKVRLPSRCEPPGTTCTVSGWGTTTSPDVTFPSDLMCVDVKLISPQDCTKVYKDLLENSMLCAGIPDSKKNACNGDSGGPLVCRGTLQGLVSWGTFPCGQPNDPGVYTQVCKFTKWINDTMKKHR

[3] = target: T1, Serine/threonine-protein phosphatase (Candida dubliniensis (strain CD36 / CBS 7987 / NCPF 3949 / NRRLY-17841) (Yeast), UniProt B9W6M3); assay: blockers of CaCl2-induced CDRE-lacZ signaling – S. cerevisiae, luminescence, secondary, dose response (AID 2388); type: functional, cell-based;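 note: yeast reporter cells carrying a calcineurin-responsive lacZ construct stimulated with calcium chloride; luminescent beta-galactosidase reporter signal in whole cells rather than isolated phosphatase activity; potency for inhibition where a drop in reporter signal means calcineurin blockade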
T1 sequence (B9W6M3 whole entry): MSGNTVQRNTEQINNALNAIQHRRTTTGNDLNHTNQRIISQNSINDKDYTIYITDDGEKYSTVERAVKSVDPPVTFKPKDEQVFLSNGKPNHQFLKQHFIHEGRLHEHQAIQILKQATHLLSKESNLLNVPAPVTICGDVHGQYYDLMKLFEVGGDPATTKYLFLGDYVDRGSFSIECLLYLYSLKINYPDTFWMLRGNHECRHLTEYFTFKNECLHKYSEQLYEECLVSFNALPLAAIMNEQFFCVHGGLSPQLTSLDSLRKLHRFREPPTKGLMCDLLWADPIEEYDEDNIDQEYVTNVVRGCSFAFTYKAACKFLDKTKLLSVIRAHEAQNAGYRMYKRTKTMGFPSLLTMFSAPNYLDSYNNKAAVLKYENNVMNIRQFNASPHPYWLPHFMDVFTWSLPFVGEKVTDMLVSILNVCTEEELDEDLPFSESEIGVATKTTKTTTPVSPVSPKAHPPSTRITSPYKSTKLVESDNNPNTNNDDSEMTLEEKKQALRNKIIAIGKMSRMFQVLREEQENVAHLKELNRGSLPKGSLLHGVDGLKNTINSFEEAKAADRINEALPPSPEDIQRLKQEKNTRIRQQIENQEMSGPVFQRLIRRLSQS

[4] = fluconazole-exposed Candida albicans growth modulators – fluorescence, retest, confirmation (AID 2467); type: functional, cell-based
[5] = Shn3 3'UTR reporter signal decrease – cell-based, Clone20 osteoblasts, firefly luciferase, cherry-pick, set 2, Schnurri-3 inhibitor project, dose response (AID 720490); type: functional;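 note: actives lower the luminescence signal as inhibitors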
[6] = target: T2, Protein skinhead-1 (Caenorhabditis elegans, UniProt P34707); type: functional
T2 sequence (P34707 whole entry): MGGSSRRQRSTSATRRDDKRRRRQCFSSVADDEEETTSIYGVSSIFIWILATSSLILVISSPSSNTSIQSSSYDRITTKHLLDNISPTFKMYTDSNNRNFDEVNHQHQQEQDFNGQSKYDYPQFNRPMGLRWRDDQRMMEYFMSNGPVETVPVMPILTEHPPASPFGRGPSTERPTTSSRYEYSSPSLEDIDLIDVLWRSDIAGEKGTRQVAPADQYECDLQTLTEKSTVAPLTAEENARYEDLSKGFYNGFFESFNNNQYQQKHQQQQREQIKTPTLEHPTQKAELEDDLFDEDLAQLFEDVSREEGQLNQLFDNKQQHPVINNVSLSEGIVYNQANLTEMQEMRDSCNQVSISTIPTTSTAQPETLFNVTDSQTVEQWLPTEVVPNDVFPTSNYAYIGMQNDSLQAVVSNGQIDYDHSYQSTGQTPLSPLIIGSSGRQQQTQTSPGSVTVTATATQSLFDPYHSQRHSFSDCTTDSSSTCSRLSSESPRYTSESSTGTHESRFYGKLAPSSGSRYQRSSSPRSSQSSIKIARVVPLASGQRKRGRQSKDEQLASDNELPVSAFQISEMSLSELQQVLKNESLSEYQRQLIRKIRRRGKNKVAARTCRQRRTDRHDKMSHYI

[7] = non-specific 3'UTR reporter inhibition in Clone20-Shn3RL – cell-based, Renilla luciferase, cherry-picked, counter-screen for Shn3 inhibitor project, dose response (AID 624133); type: functional
[8] = EF1alpha-driven Renilla reporter with control 3'UTR suppression – Clone20-Shn3RL cells, dual-Glo, cherry-pick, set 2, counter-screen for Shn3 3'UTR targeting project, dose response (AID 720724); type: functional, cell-based; conditions: Dual-Go Shn3RL
[9] = target: T1, Serine/threonine-protein phosphatase; assay: Fluorescence Cell-Based Secondary Assay to Identify Inhibitors of Calcineurin. [Related pubchem assays (depositor defined):AID1979, AID2007]; type: functional
[10] = NIH-3T3 fibroblast cytotoxicity, dose response, cytotoxicity control, cell-based, fluorescence, Alamar Blue, secondary assay (AID 2327); type: functional;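 note: NIH-3T3 mouse fibroblasts cultured with fluconazole at 8 µg/mL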
[11] = loss of viability in HepG2 cells – cell-based, CellTiter-Glo, cherry-picked, cytotoxicity control for Shn3 inhibitor project, dose response (AID 624134); type: functional
[12] = reduction of Shn3 3'UTR-driven luciferase in osteoblasts – cell-based, Clone20 osteoblasts, firefly luciferase, cherry-picked, dose response (AID 624132); type: functional;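 note: firefly luciferase luminescence from reporter carrying the Shn3 3'UTR in osteoblasts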
[13] = tested on: INS1; assay: INS-1E survival protection against cytokine death – cell-based, luminescence, retest, dose response (AID 449756); type: functional; conditions: Rattus norvegicus;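 note: cell death triggered by IL-1 beta plus TNF-alpha plus IFN-gamma mixture; protective hits raise ATP signal compared with cytokine alone wells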
[14] = target: ATP-dependent molecular chaperone HSP82 (Candida albicans (strain WO-1) (Yeast), UniProt C4YTQ8); assay: steroid-induced GRE reporter decrease in yeast – S. cerevisiae, luminescence, Hsp90 inhibitor project, dose response (AID 2400); type: functional, cell-based;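 note: beta-galactosidase luminescence from glucocorticoid response element reporter as proxy for Hsp90 function; inhibitor potency where signal loss means Hsp90 inhibition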
Sequence of ATP-dependent molecular chaperone HSP82 (C4YTQ8 whole entry): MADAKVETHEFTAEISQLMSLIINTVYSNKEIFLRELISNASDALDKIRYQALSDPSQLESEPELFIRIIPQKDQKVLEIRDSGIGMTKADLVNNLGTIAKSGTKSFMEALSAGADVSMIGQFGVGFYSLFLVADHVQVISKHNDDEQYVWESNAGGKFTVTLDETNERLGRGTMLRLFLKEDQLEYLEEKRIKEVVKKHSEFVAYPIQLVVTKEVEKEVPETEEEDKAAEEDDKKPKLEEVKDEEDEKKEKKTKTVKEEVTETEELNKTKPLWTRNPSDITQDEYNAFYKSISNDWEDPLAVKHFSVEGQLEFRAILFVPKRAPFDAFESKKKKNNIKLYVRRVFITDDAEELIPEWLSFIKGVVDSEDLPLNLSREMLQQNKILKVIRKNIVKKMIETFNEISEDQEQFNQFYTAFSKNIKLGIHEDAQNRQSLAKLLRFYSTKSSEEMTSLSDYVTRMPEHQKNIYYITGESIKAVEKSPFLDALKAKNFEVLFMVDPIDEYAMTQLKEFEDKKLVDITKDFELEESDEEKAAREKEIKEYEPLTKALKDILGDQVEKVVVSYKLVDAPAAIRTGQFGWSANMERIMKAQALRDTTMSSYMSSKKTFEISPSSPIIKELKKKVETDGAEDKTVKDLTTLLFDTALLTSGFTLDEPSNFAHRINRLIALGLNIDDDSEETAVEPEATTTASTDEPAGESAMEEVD

[15] = target: Intestinal-type alkaline phosphatase (Mus musculus, UniProt P24822); assay: PubChem AID 488785; type: functional
Sequence of Intestinal-type alkaline phosphatase (Mus musculus, UniProt P24822) (P24822 whole entry): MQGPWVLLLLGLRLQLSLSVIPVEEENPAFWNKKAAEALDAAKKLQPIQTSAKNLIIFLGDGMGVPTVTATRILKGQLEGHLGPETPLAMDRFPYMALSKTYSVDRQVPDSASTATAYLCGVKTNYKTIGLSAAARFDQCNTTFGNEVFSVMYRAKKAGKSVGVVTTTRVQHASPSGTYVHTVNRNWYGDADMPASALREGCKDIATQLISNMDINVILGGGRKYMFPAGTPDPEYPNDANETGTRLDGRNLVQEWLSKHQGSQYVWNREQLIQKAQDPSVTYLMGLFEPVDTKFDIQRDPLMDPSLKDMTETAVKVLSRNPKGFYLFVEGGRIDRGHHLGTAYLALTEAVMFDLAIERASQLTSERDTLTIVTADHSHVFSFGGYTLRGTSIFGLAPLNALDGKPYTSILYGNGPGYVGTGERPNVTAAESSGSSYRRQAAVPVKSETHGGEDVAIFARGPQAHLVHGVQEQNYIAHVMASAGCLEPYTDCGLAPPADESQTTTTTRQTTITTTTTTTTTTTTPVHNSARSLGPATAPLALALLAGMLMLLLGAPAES

[16] = potency of ADAM10 substrate cleavage blockers – biochemical, QFRET, dose response (AID 743254);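 note: ADAM10 enzyme with the DM2 quenched FRET peptide as substrate; EDANS fluorescence gain as the protease cuts the substrate; inhibitor potency against ADAM10 proteolytic activity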
[17] = target: Disintegrin and metalloproteinase domain-containing protein 17 (Homo sapiens, UniProt P78536); assay: inhibition of ADAM17 substrate cleavage – biochemical, quenched FRET substrate, counter-screen for ADAM10 exosite inhibitor project, dose response (AID 743253)
Sequence of Disintegrin and metalloproteinase domain-containing protein 17 (P78536 whole entry, the tested form may be a part): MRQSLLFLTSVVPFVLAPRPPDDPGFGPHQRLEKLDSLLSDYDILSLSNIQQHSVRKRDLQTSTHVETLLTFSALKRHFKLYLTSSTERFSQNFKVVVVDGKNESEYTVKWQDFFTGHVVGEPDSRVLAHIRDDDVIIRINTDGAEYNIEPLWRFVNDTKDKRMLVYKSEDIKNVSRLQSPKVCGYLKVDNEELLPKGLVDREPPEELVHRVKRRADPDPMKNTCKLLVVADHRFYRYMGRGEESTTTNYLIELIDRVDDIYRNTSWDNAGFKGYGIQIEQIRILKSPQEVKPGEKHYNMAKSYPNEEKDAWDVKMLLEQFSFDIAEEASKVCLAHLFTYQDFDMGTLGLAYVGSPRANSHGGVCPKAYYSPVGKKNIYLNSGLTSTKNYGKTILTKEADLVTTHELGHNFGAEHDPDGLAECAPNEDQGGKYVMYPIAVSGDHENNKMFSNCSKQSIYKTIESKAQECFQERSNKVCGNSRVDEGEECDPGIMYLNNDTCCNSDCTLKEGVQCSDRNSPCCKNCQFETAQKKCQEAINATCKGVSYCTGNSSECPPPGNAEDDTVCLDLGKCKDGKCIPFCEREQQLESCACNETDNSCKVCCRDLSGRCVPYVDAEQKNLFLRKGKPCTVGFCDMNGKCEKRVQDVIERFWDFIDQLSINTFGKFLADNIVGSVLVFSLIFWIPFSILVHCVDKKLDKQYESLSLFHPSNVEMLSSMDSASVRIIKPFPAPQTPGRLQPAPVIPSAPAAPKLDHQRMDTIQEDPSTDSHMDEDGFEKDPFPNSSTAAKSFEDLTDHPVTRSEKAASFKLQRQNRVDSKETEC

[18] = target: Intestinal-type alkaline phosphatase (Homo sapiens, UniProt P09923); assay: inhibition of human intestinal alkaline phosphatase – biochemical, dose response (AID 488876); type: functional
Sequence of Intestinal-type alkaline phosphatase (Homo sapiens, UniProt P09923) (P09923 whole entry): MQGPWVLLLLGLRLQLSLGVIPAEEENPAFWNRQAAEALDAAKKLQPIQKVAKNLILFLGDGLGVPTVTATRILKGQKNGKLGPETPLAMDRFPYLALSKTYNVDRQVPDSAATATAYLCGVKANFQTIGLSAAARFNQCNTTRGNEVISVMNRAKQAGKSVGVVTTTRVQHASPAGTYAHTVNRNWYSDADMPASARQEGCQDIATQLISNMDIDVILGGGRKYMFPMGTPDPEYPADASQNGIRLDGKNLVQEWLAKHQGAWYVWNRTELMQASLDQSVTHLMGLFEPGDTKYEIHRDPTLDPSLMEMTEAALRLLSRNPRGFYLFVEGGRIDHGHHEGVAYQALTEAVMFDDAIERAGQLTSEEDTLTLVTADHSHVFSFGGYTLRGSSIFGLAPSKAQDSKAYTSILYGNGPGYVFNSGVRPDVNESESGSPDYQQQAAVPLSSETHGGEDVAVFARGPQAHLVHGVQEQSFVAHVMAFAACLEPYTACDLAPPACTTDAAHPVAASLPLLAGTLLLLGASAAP

[19] = target: T3, Alkaline phosphatase, tissue-nonspecific isozyme (Homo sapiens, UniProt P05186); assay: TNAP enzyme inhibition by screening hits, dose response, selectivity assay for mouse IAP inhibitor project, biochemical, human TNAP, uHTS hits (AID 488906); type: functional
T3 sequence (P05186 whole entry): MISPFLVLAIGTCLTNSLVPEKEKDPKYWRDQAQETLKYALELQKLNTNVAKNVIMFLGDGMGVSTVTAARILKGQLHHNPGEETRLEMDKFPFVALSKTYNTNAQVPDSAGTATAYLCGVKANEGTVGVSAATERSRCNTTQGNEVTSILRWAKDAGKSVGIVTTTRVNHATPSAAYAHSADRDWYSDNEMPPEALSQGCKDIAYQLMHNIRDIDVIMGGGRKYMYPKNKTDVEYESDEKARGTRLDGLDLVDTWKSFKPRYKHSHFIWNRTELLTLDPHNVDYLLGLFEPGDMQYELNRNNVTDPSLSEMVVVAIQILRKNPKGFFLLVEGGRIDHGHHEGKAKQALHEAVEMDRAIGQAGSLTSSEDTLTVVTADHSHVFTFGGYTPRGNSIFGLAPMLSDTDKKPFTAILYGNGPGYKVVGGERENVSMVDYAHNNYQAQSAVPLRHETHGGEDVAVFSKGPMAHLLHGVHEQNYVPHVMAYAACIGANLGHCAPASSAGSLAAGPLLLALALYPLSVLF

[20] = target: T4, Methionyl-tRNA synthetase, putative (Trypanosoma brucei brucei, UniProt Q38C91); type: functional, Trypanosoma brucei brucei strain 927/4 GUTat10.1
T4 sequence (Q38C91 whole entry): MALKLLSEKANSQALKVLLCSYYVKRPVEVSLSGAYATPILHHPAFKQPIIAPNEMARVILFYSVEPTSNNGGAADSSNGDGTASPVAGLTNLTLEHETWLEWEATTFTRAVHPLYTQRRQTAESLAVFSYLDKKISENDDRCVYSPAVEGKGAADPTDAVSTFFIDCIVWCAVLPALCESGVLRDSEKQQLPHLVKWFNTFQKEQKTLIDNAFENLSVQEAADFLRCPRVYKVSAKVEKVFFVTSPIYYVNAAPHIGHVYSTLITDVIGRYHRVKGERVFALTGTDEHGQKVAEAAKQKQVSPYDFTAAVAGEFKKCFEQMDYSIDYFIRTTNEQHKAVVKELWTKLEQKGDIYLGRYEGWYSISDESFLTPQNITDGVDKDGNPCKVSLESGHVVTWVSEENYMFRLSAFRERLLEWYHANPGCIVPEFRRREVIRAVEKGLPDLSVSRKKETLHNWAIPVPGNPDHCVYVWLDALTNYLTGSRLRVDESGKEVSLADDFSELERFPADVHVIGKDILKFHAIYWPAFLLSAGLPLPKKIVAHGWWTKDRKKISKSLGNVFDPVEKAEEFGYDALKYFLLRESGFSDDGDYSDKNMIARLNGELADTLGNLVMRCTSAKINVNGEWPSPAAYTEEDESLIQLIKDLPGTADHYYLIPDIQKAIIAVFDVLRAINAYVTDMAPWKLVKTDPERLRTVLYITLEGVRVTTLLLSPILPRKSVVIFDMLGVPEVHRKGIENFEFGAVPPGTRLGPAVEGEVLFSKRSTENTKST

[21] = Counterscreen for inhibitors of Trypanosoma brucei methionyl tRNA synthetase (MetRS): Luminescence-based cell-based high throughput dose response assay to identify compounds that are cytotoxic to Jurkat human T lymphocyte cells.; type: functional
[22] = target: T4, Methionyl-tRNA synthetase, putative; type: functional, Trypanosoma brucei brucei strain 927/4 GUTat10.1; remark: listed apart in the source

- AC50 [1]: > 30 µM (inactive)
SMILES: CCOC(=O)c1cnc(-n2nc(C)cc2C)nc1Oc1ccccc1F

SMILES: CCN1CCN(C(=O)COc2ccc3c(c2)C(=O)CC2(CCN(C(C)=O)CC2)O3)CC1
- EC50 [2]: > 2.58 µM (active)

SMILES: Cc1nc2ccccc2cc1OCc1ccc(F)cc1
- EC50 [3]: > 180 µM (inactive)
- EC50 [4]: 1.58 µM (active)
- AC50 [5]: 2.05 µM (active)
- IC50 [6]: 12.2 µM (active)
- AC50 [7]: 22.1 µM (active)
- AC50 [8]: 4.87 µM (active)
- EC50 [9]: > 285 µM (inactive)
- EC50 [10]: > 160 µM (inactive)
- AC50 [11]: 41.7 µM (active)
- AC50 [12]: 1.7 µM (active)
- AC50 [13]: 4.84 µM (active)
- EC50 [14]: 21.1 µM (active)

SMILES: CCc1cc(Cn2nc(-c3ccccc3)cc2C(=O)NCc2cccc(Br)c2)on1
- IC50 [15]: 12.9 µM (active)
- IC50 [16]: > 69.5 µM (inactive)
- IC50 [17]: > 69.5 µM (inactive)
- IC50 [18]: > 100 µM (inactive)
- IC50 [19]: 54.9 µM (active)
- IC50 [20]: 1.66 µM (active)
- IC50 [21]: 83.3 µM (inactive)
- IC50 [22]: 2.93 µM (active)
